{
  "source": "patent US20140086827A1",
  "about": "“Serum S100B And Uses Thereof” (THE CLEVELAND CLINIC FOUNDATION, priority 2011, published 2014)",
  "key": {"[1]": {"system": "pilocarpine-induced SE", "test": "Pilocarpine-induced status epilepticus in rats (EEG, Racine's scale, mortality)", "format": "in vivo, rat", "conditions": "for time to onset of SE: rats that developed SE", "protocol": "Rats (male Sprague-Dawley 225-250 g) were injected with methylscopolamine (0.5 mg/kg, i.p., Sigma-Aldrich) and 30 minutes after with pilocarpine (340 mg/Kg, Sigma-Aldrich). Data obtained from a total of 45 rats was analyzed (see also FIG. 14B). Development of seizure and status epilepticus was evaluated by behavioral (Racine's scale) and EEG assessment. […] IL-RA data included here are relative to [Marchi N., et al. (2009) Neurobiol Dis 33: 171-181]. IL-RA was administrated in the tail vein (30 μg/kg) 2 hours before scopolamine/pilocarpine treatment.\nNote that blood samples were taken at baseline, after each treatment and immediately before (or at onset) of status epilepticus (SE), as evaluated by EEG and behavioral (Racine's Scale) assessments. This methodology has been used in the past to evaluate the presence of BBB damage and inflammatory process preceding seizure onset [Uva L., et al. (2008) Neuroscience 151: 303-312].\nStereotactic electrode implantation was performed in rats under isofluorane anaesthesia, using the Kopf stereotactic frame. Approximately, half of the rats used were implanted. Four stainless steel screws (MX-0090-2, Small Parts Inc., Miami, Fla.) were placed bilaterally on the dura mater of the fronto-parietal cortex. A prefabricated Pinnacle pre-amplifier was connected to the screws. The system has three bio-potential channels—2 EEG and 1 EMG. Prefabricated head implants (Pinnacle Inc., USA) ensured accurate electrode positioning and reliable, robust contacts. Cable artifacts are eliminated by pre-amplification of the EEG and EMG waveforms at the animal's head. EEG data were sampled a rate of 200 Hz. All data are transferred via a USB connection to a PC. Rats were left unrestrained for 2 weeks to recovery from surgery before EEG recordings were performed. Each rat was kept in a separate cage under 12-hours dark-light cycles with free access to food and water. Origin Microcal 7.0 and Diadem (National Instruments) was used in conjunction to the acquisition system for data analysis (e.g., time joint frequency analysis)."}, "[2]": {"system": "CD3+ T-lymphocytes", "test": "FACS analysis of circulating T-lymphocytes in rat blood", "format": "in vivo", "conditions": "after dexamethasone treatment, rats", "protocol": "(§1) The schedule of blood sampling is illustrated in FIG. 14A. Blood was collected from the tail vein using a fixed catheter (Venisystem, Abbocath, 22 G, 300-500 μl/sample). For FACS analysis, 150 μL of whole blood were incubated with a combination of specific antibodies recognizing T-cell subpopulation (CD3+). In particular mouse anti-rat CD8a-FITC, CD3-R-PE and CD4-PE-Cy5 (BD-Pharmingen) were added (2 μL, 5 μL and 5 μL respectively) to blood samples. Blood samples were analyzed by the FACS-Core facility at the Cleveland Clinic. IL-1β ELISA-tests was purchased from Pierce Biotechnology Inc. and performed as described by the vendor."}, "[3]": {"system": "IL-1β", "test": "Serum IL-1β ELISA in rats", "format": "in vivo, rat", "conditions": "dexamethasone treatment", "protocol": "as §1"}, "[4]": {"system": "drug-resistant epileptic seizures", "test": "Add-on glucocorticosteroid or ACTH treatment in pediatric drug resistant epilepsy (review of clinical data)", "format": "in vivo, human", "conditions": "for occurrence of seizures (seizure burden vs baseline): add-on treatment, pediatric drug resistant epilepsy, 53 treatments", "protocol": "The study was conducted according to the Declaration of Helsinki Criteria and to the procedures for compassionate drug administration approved by the Ethic Committees of Carlo Besta Institute (Milan, Italy). Oral informed consent from was obtained from parents by specialized neurologists. Administration of GCs was considered compassion care since all patients had intractable life threatening seizures. The clinical data of 43 patients (Table 4) of the Carlo Besta Neurological Institute (Milan, Italy) was reviewed. […] Patients with a history of epileptic syndromes known to respond to steroids (i.e., West, Lennox-Gastaut, Landau-Kleffner and Rasmussen encephalitis) as well as patients affected by documented inflammatory brain disease were excluded. All the subjects received steroid treatment on an in-patient basis.\nPatients received GCs or ACTH therapy because of one of the following: 1) >50% increase in seizure frequency; 2) development of non-convulsive status epilepticus; 3) presence of epilepsia partialis continua (EPC). Before GCs or ATCH treatment, patients were evaluated by a team of neurologists, physiologists, and underwent EEG and routine laboratory examinations. Antiepileptic treatments were maintained during the steroid course (Table 4).\nSteroidal treatment was, when successful, repeated in case of seizure recurrence. […] GCs or ATCH therapy was considered successful when: 1) seizure frequency decreased by 50%; 2) status epilepticus was stopped; 3) or when epilepsia partialis continua (EPC) was stopped/reduced enough to allow voluntary movement in the affected body district. Duration of treatment was limited to acute dosing, which was repeated when the initial response was beneficial. The effects of length of treatments and efficacy/toxicity of chronic use are not presented herein, since this study design only addressed a proof of principle use of steroids in pediatric epilepsy."}, "[5]": {"system": "seizures", "conditions": "drug-resistant children, Araki 2006; cited from earlier work"}, "[6]": {"system": "pilocarpine-induced SE", "conditions": "data from Marchi 2009, cited from earlier work"}, "[7]": {"system": "blood-brain barrier", "conditions": "IL-RA pre-treatment; previously reported; cited from earlier work"}, "[8]": {"conditions": "dexamethasone pre-treatment, vs pilocarpine alone"}},
  "note": "Entries after “also recorded” stand apart in the source; their conditions may differ. Read-outs that look alike come from different tables or passages of the source.",
  "data": [
    {"molecule": "C[C@@H]1C[C@H]2[C@@H]3CCC4=CC(=O)C=C[C@]4(C)[C@@]3(F)[C@@H](O)C[C@]2(C)[C@@]1(O)C(=O)CO", "note": "[dexamethasone]", "values": [
      {"measurement": "time to onset of SE", "setting": "[1]; [8]", "result": "significantly delayed"},
      {"measurement": "time to onset of SE", "setting": "[1]; dexamethasone pre-treatment, vs pilocarpine alone, listed as Dexa", "result": "delayed"},
      {"measurement": "mortality associated with pilocarpine SE (twelve hours)", "setting": "[1]; dexamethasone pre-treatment, seizures not stopped with barbiturates", "result": "significantly decreased; also recorded: abolishes mortality; also recorded: reduced mortality; also recorded: abolished"},
      {"measurement": "early EEG burst clusters (time-joint frequency analysis)", "setting": "[1]; [8]", "result": "reduced in amplitude and frequency"},
      {"measurement": "effects of single dosage of 1 mg/day on pilocarpine seizures", "setting": "[1]; single dosage of 1 mg/day", "result": "did not exert any discernable effects"},
      {"measurement": "number of circulating CD3+ T-lymphocytes", "setting": "[2]", "result": "drastic reduction; also recorded: drastic decrease"},
      {"measurement": "relative percentage of CD8+ subpopulation among CD3+ cells", "setting": "[2]", "result": "significantly affected"},
      {"measurement": "serum IL1-β levels", "setting": "[3]", "result": "reduced"},
      {"measurement": "serum IL1-β levels", "setting": "[3]; listed as Dexamethasone", "result": "significantly reduced"},
      {"measurement": "occurrence of seizures (seizure burden vs baseline)", "setting": "[4]", "result": "significantly reduced"},
      {"measurement": "MRI FLAIR hyperintensity", "setting": "[4]; patient after dexamethasone treatment, concurrent with seizure reduction", "result": "decrease in FLAIR hyperintensity"},
      {"measurement": "seizure frequency vs untreated patients", "setting": "[5]", "result": "reduced seizure frequency"}
    ]},
    {"molecule": "C[C@]12CCC(=O)C=C1CC[C@@H]1[C@@H]2[C@@H](O)C[C@@]2(C)[C@H]1CC[C@]2(O)C(=O)CO", "note": "[hydrocortisone]", "values": [
      {"measurement": "blood-brain barrier function and seizure frequency in epileptic patients receiving anti-inflammatory therapy", "setting": "[4]; epileptic patients, clinical dosage", "result": "comparable effects"}
    ]},
    {"molecule": "IL-RA: IL-1 receptor antagonist, data from Marchi 2009", "values": [
      {"measurement": "early EEG burst clusters (time-joint frequency analysis)", "setting": "[6]; IL1-RA pre-treatment", "result": "reduced in amplitude and frequency"},
      {"measurement": "number of rats developing SE / seizure occurrence", "setting": "[6]; IL-RA 30 μg/kg tail vein 2 hours before scopolamine/pilocarpine", "result": "reduces seizure occurrence"},
      {"measurement": "mortality associated with pilocarpine seizures (twelve hours)", "setting": "[6]; IL-RA pre-treatment", "result": "decreased"},
      {"measurement": "time to onset of SE", "setting": "[6]; IL-RA pre-treatment", "result": "delayed"},
      {"measurement": "pilocarpine-induced BBB damage", "setting": "[7]", "result": "prevents BBB damage"}
    ]},
    {"molecule": "adrenocorticotropic hormone (SYSMEHFRWGKPVGKKRRPVKVYPNGAEDESAEAFPLEF; Corticotropin; UniProt P01189 138-176, looked up) [ACTH]", "values": [
      {"measurement": "occurrence of seizures (seizure burden vs baseline)", "setting": "[4]", "result": "significantly reduced"}
    ]}
  ]
}
